For 1 compound, Kd results are on record in paper PMC3271384 (Molecular Genetics and Metabolism, 2012).

Each structure is given as a SMILES string. Changes are numbered by the printed parent chain. A value given as a limit tells only on which side of the number the result lay.

What all share (format): binding
In experiment [1] the target is T1, AGT-Ma (Homo sapiens, UniProt P21549, S218L).
T1 sequence (P21549 1-392 S218L): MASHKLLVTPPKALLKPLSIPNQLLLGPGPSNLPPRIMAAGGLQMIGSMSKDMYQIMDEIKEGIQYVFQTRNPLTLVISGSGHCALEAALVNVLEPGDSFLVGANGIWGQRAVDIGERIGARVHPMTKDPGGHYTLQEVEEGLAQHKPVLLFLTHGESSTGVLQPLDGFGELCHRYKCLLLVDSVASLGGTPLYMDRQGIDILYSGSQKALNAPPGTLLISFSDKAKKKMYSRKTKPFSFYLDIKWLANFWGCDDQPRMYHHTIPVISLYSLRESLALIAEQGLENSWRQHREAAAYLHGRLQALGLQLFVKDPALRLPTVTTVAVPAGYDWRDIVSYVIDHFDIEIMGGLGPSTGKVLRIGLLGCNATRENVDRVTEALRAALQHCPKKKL
The experiment is described as follows: CD signal at […] nm titration of apoenzyme.

For experiment [2], the target named is T2, AGT-Ma (Homo sapiens, UniProt P21549, S158L).
T2 sequence (P21549 1-392 S158L): T1 sequence (P21549 1-392 S218L) with S158L, L218S
The experiment is described as follows: CD signal at […] nm titration of apoenzyme.

For experiment [3], the target named is T3, AGT-Mi (Homo sapiens, UniProt P21549, I340M/P11L/W108R).
T3 sequence (P21549 1-392 P11L/W108R/I340M): T1 sequence (P21549 1-392 S218L) with P11L, W108R, L218S, I340M
Kind of experiment: CD signal at […] nm titration of apoenzyme.

In experiment [4] the target is T4, AGT-Ma (Homo sapiens, UniProt P21549, D183N).
T4 sequence (P21549 1-392 D183N): T1 sequence (P21549 1-392 S218L) with D183N, L218S
The experiment is described as follows: CD signal at […] nm titration of apoenzyme.

Experiment [5] addresses T5, AGT-Mi (Homo sapiens, UniProt P21549, G350D/I340M/P11L).
T5 sequence (P21549 1-392 P11L/I340M/G350D): T1 sequence (P21549 1-392 S218L) with P11L, L218S, I340M, G350D
The experiment is described as follows: quenching of intrinsic fluorescence of apoenzyme.

The target in experiment [6] is T6, AGT-Mi (Homo sapiens, UniProt P21549, G161S/I340M/P11L).
T6 sequence (P21549 1-392 P11L/G161S/I340M): T1 sequence (P21549 1-392 S218L) with P11L, G161S, L218S, I340M
Kind of experiment: quenching of intrinsic fluorescence of apoenzyme.

Experiment [7] addresses T7, AGT-Ma (Homo sapiens, UniProt P21549, S187F).
T7 sequence (P21549 1-392 S187F): T1 sequence (P21549 1-392 S218L) with S187F, L218S
Kind of experiment: intrinsic fluorescence.

`Cc1ncc(COP(=O)(O)O)c(C=O)c1O` [PLP]: the Kd (usually a measure of binding affinity in units of concentration) in experiment [1] amounted to 24.2 ± 0.1 µM; in experiment [2], 272 ± 47 µM; in experiment [3], 96 ± 19 µM; in experiment [4], 2100 ± 100 nM; in experiment [5], 31 ± 5 nM; in experiment [6] it was 460 ± 70 nM. For the same compound, the Kd in experiment [7] is < 10 nM.
